Laboratory results published in patent publication US8287888B2, “Thermosensitive polyphosphazene-bioactive molecule conjugates, preparation method thereof and use thereof” (Korea Institute of Science and Technology, priority 2006, dated 2012).

Experiments:
[1] = tested on: human breast adenocarcinoma (MCF-7); assay: Anti-cancer activity in vitro, MTT; format: cell-based
Procedure: (§1) In order to find out anticancer activity in vitro of the poly(organophosphazene) conjugated with anti-cancer drug of the present invention, the trial as follows was performed about the human breast adenocarcinoma (MCF-7, the Korea Cell Line Bank) and the human cervix adenocarcinoma (Hela, the Korea Cell Line Bank).
(§2) For the in vitro cell experiment, in order to measure the genesistasis concentration to 50% (IC50) toward the cancer cell of the poly(organophosphazene) conjugated with anticancer drug, the analytical method using 3-(4,5-dimethylthiazol-2-yl)-2,5-diphenyl-2H-tetrazolium bromide (MTT) was performed [T. Mosmann, J. Immunol. Method, 65, (1985) 55].
(§3) The materials for to measuring were respectively melted in the DMSO (dimethylsulfoxide) of the small amount, and they were diluted to the distilled water with 200 times. The materials solution were added to the cancer cell that is MCF-7(the Korea Cell Line Bank) and Hela (the Korea Cell Line Bank). Then, they were added to 96-well microtiter plater to 1.0×10^4 cell/ml (the concentration of the cancer cell). And they were cultivated for 2, 3, 4 days, respectively, with 37° C. in 5% CO2 condition.
(§4) MTT solution (20 μl) was mixed the cultivated cell with, and they were more cultivated for 4 hours with 37° C. in 5% CO2 condition. After the upper culture medium of each cell was removed, DMSO (100 μl) was added to a well and they were shaken in the room temperature to the plate shaker with for 20 minutes, thereby dissolving the formazan crystal generated by reducing of MTT.

[2] = tested on: human cervix adenocarcinoma (Hela); assay: Anti-cancer activity in vitro, MTT; format: cell-based
Procedure: as §1, §2, §3, §4

[3] = Sol-gel phase transition with change of temperature (Brookfield rheometer); format: physicochemical
Procedure: The poly(organophosphazene) conjugated with a drug or bioactivemolecules obtained in Examples 1 to 11 were respectively dissolved in phosphate buffered saline (pH 7.4) at 4° C. so as to make solutions with concentrations of 10 wt %. The solutions were put into a chamber of a Brookfield DV-III+ Rheometer equipped with a thermostatic bath (TC-501).

[4] = Hydrolysis of the polymer with time by GPC molecular weight; format: physicochemical; settings: 10 wt % in PBS pH 7.4, 37° C., compared among Examples 3, 4 and 9
[5] = 10 wt % in phosphate buffered saline (pH 7.4)

Substance: poly[(isoleucineethylester)(aminomethoxypolyethyleneglycol 550)(glycylglycine)(glycylglycyldoxorubicin)phosphazene] [Example 3]
- Anti-cancer activity [IC50] ([1]; MCF-7, 2nd day): 2.294 µg/mL
- Anti-cancer activity [IC50] ([1]; MCF-7, 3rd day): 0.926 µg/mL
- Anti-cancer activity [IC50] ([1]; MCF-7, 4th day): 0.798 µg/mL
- Anti-cancer activity [IC50] ([2]; 2nd day): 1.477 µg/mL
- Anti-cancer activity [IC50] ([2]; 3rd day): 1.065 µg/mL
- Anti-cancer activity [IC50] ([2]; 4th day): 0.605 µg/mL
- Gel solidity (maximum viscosity of the polymer solution) [3, 5]: 158 Pa · s
- Max. gelling temp. (temperature where the viscosity of the polymer solution reaches the maximum point) [3, 5]: 38 °C
- viscosity in 37° C. ([3]; compared among Examples 3, 4 and 9): the highest viscosity
- speed of hydrolysis (reduced molecular weight by GPC) [4]: the most slowly hydrolyzed
